Test results from ChEMBL document CHEMBL1129203, “Structure-activity relationships in 3-oxo-1,4-benzodiazepine-2-acetic acid GPIIb/IIIa antagonists. The 2-benzazepine series” (Bioorg Med Chem Lett, 1996).

How the values were obtained:
Homo sapiens = organism: Homo sapiens; experiment: In vitro inhibition of platelet aggregation in human platelet-rich plasma induced by ADP; format: functional
[1] = target: Integrin alpha-IIb/beta-3 (Homo sapiens, UniProt P05106+P08514); experiment: In vitro binding affinity against human alpha IIb beta-3 integrin; format: protein-complex assay
Chain of Integrin alpha-IIb/beta-3 (P05106 27-788 limits assumed): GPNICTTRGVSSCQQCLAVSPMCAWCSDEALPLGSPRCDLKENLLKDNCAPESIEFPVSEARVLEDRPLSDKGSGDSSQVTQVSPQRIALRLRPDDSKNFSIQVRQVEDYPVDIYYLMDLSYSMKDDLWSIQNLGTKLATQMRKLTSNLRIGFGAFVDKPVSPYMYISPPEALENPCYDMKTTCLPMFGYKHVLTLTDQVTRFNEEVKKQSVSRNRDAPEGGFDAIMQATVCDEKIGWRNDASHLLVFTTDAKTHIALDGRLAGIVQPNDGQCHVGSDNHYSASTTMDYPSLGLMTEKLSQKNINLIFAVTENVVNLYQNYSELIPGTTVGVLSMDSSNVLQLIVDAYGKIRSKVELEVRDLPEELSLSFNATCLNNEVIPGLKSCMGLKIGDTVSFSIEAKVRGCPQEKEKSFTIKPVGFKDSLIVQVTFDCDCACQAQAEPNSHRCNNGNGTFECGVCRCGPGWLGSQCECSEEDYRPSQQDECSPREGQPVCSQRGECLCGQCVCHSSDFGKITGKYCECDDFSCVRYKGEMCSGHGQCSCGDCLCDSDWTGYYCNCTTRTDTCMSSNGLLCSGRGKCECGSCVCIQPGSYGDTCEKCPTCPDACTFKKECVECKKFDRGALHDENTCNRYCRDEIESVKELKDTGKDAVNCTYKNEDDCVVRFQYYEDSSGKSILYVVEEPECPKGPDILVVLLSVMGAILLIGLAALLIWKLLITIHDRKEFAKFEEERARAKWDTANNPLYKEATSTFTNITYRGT
Chain of Integrin alpha-IIb/beta-3 (P08514 32-887 limits assumed): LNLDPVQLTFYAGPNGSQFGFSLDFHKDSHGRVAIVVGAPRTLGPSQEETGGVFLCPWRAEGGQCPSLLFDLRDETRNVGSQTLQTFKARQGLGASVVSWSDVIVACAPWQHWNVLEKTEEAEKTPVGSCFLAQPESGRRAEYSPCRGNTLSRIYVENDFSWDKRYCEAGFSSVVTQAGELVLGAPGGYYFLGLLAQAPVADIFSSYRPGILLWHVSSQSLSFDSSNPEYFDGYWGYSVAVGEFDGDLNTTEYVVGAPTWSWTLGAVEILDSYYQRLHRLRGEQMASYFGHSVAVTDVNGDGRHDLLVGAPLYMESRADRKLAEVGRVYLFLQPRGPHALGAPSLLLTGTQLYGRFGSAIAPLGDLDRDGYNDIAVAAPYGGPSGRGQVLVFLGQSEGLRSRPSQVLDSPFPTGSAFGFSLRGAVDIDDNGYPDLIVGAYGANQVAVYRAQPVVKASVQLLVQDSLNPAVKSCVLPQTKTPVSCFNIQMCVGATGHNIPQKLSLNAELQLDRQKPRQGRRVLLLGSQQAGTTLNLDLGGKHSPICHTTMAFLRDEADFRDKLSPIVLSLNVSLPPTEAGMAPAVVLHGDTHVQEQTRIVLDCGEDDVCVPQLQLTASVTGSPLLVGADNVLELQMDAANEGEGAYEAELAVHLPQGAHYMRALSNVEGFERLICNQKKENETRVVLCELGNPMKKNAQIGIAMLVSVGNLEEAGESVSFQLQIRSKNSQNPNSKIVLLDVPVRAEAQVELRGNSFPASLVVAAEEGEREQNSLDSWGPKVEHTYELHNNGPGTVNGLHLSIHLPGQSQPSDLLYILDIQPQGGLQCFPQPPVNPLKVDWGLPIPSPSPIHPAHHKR
Chain of Integrin alpha-IIb/beta-3 (P08514 891-1039 limits assumed): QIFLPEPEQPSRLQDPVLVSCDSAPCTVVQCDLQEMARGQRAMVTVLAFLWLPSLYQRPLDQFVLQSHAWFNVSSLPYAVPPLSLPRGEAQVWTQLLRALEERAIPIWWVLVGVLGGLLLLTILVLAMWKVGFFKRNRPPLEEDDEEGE

Structure (SMILES)	IC50 (Homo sapiens)	Ki [1]
CN(CCC1CCNCC1)C(=O)c1ccc2c(c1)CC(CC(=O)O)C(=O)N(C)C2 (configuration not stated)	33 nM	1.5 nM
CC(C)N1Cc2ccc(C(=O)N(C)CCC3CCNCC3)cc2CC(CC(=O)O)C1=O (configuration not stated)	37 nM	2 nM
CN(CCC1CCNCC1)C(=O)c1ccc2c(c1)CC(CC(=O)O)C(=O)N(C1CCCCC1)C2 (configuration not stated)	49 nM	1.3 nM
CN(CCC1CCNCC1)C(=O)c1ccc2c(c1)CC(CC(=O)O)C(=O)NC2 (configuration not stated)	71 nM	3.2 nM
CN(CCC1CCNCC1)C(=O)c1ccc2c(c1)CC(CCC(=O)O)C(=O)N(CCc1ccccc1)C2 (configuration not stated)	7790 nM	650 nM
CN(CCC1CCNCC1)C(=O)c1ccc2c(c1)CC(CC(=O)O)C(=O)N(Cc1ccccc1)C2 (configuration not stated)	36 nM	1 nM
CC(C)CCN1Cc2ccc(C(=O)N(C)CCC3CCNCC3)cc2CC(CC(=O)O)C1=O (configuration not stated)	32 nM	1.5 nM

Stronger by IC50 (Homo sapiens), values ahead:

IC50 (Homo sapiens)	Ki [1]	Structure (SMILES)
8 nM	–	N=C(N)c1ccc(NC(=O)c2ccc3c(c2)NC(CC(=O)O)C(=O)N(CCc2ccccc2)C3)cc1 (configuration not stated)
18 nM	2.5 nM	CN(CCC1CCNCC1)C(=O)c1ccc2c(c1)CC(CC(=O)O)C(=O)N(CCc1cccs1)C2 (configuration not stated)
8 nM	2 nM	CN(CCC1CCNCC1)C(=O)c1ccc2c(c1)CC(CC(=O)O)C(=O)N(CCCCCc1ccccc1)C2 (configuration not stated)
13 nM	3 nM	CN(CCC1CCNCC1)C(=O)c1ccc2c(c1)CC(CC(=O)O)C(=O)N(CCc1ccccc1)C2 (configuration not stated)
27 nM	2 nM	CN(CCC1CCNCC1)C(=O)c1ccc2c(c1)CC(CC(=O)O)C(=O)N(CCC1CCCCC1)C2 (configuration not stated)
12 nM	1.5 nM	CN(C(=O)c1ccc2c(c1)CC(CC(=O)O)C(=O)N(CCc1ccccc1)C2)c1ccc(C(=N)N)cc1 (configuration not stated)
27 nM	1.7 nM	CN(CCC1CCNCC1)C(=O)c1ccc2c(c1)CC(CC(=O)O)C(=O)N(CCc1ccc(F)cc1)C2 (configuration not stated)
27 nM	2 nM	CN(CCC1CCNCC1)C(=O)c1ccc2c(c1)CC(CC(=O)O)C(=O)N(CCC(C)(C)C)C2 (configuration not stated)
31 nM	1.5 nM	CCCCN1Cc2ccc(C(=O)N(C)CCC3CCNCC3)cc2CC(CC(=O)O)C1=O (configuration not stated)
28 nM	–	CN(C(=O)c1ccc2c(c1)NC(CC(=O)O)C(=O)N(CCc1ccccc1)C2)c1ccc(C(=N)N)cc1 (configuration not stated)
